The values that follow come from ChEMBL document CHEMBL5053529 (J Med Chem, 2021).

In brackets after ≈: the same amount, converted by molar mass. Where only a bound is given, the exact number is not on record here.

Data set [1] in a line: Clearance in mouse liver microsomes incubated up to 80 mins by LC-MS/MS analysis. It counts as ADME, Microsome. The conditions noted are these: 1.333 h. (In general: Microsomes from liver hold many membrane-bound enzymes, among them those of drug oxidation.)
A short description of data set [2]: Clearance in rat liver microsomes incubated up to 80 mins by LC-MS/MS analysis. The conditions noted are these: 1.333 h. Type of data set: ADME, Microsome.
Data set [3] is described as follows: Kinetic solubility of the compound at pH 7.4. Type of data set: physicochemical. The conditions noted are these: buffer, read-out: Kinetic_solubility.
A short description of data set [4]: Half life in Beagle dog at 0.3 mg/kg, po. The note with it: in vivo. It counts as ADME, organism-based, Canis lupus familiaris.
Data set [5] can be described thus: AUC (0 to infinity) in Sprague-Dawley rat at 6 mg/kg, po. Type of data set: ADME, organism-based. More on the design: time infinity, dose 6 mg/kg, route po. The conditions noted are these: in vivo.
The nature of data set [6]: Drug concentration in Sprague-Dawley rat blood at 10 umol/kg, po measured after 4 hrs by LC-MS/MS analysis. It counts as ADME, organism-based. The note with it: dose 10 µmol/kg, read-out: Drug uptake.
The nature of data set [7]: Cmax in Sprague-Dawley rat at 6 mg/kg, po. It counts as ADME, organism-based. More on the design: dose 6 mg/kg, route po. The note with it: in vivo.
Data set [8] is described as follows: Hepatic clearance in Sprague-Dawley rat at 6 mg/kg, po. It counts as ADME, organism-based. The conditions noted are these: in vivo.
A short description of data set [9]: Drug concentration in Sprague-Dawley rat blood at 100 umol/kg, po measured after 4 hrs by LC-MS/MS analysis. It counts as ADME, organism-based. The conditions noted are these: dose 100 µmol/kg, read-out: Drug uptake.
Data set [10] in a line: Hepatic clearance in Beagle dog at 0.3 mg/kg, po. Type of data set: ADME, organism-based, Canis lupus familiaris. The conditions noted are these: in vivo.
A short description of data set [11]: Drug concentration in Sprague-Dawley rat brain at 3 umol/kg, po measured after 4 hrs by LC-MS/MS analysis. Type of data set: ADME, organism-based. The note with it: dose 3 µmol/kg, read-out: Drug uptake.
The nature of data set [12]: Oral bioavailability in C57BL/6 mouse at 6 mg/kg. It counts as ADME, organism-based. The note with it: in vivo.
Data set [13] in a line: Clearance in Beagle dog at 6 mg/kg, po. The conditions noted are these: in vivo. Type of data set: ADME, organism-based, Canis lupus familiaris.
A short description of data set [14]: Drug concentration in Sprague-Dawley rat brain at 10 umol/kg, po measured after 4 hrs by LC-MS/MS analysis. It counts as ADME, organism-based. The conditions noted are these: dose 10 µmol/kg, read-out: Drug uptake.
Data set [15] is described as follows: Volume of distribution in steady state in Sprague-Dawley rat at 6 mg/kg, po. It counts as ADME, organism-based. The note with it: in vivo.
The nature of data set [16]: Cmax in C57BL/6 mouse at 6 mg/kg, po. The conditions noted are these: in vivo. It counts as ADME, organism-based. Also noted: dose 6 mg/kg, route po.
Data set [17] in a line: Unbound drug concentration in Sprague-Dawley rat brain at 30 umol/kg, po measured after 4 hrs by LC-MS/MS analysis. Type of data set: ADME, organism-based. The note with it: in vivo, dose 30 µmol/kg.
Data set [18] can be described thus: Thermodynamic solubility of the compound at pH 1. It counts as physicochemical. The note with it: buffer, read-out: Therm_solubility.
Data set [19] can be described thus: Cmax in Beagle dog at 0.3 mg/kg, po. Type of data set: ADME, organism-based, Canis lupus familiaris. Also noted: dose 0.3 mg/kg, route po. The conditions noted are these: in vivo.
Data set [20] in a line: AUC (0 to infinity) in C57BL/6 mouse at 6 mg/kg, po. Type of data set: ADME, organism-based. Also noted: time infinity, dose 6 mg/kg, route po. The conditions noted are these: in vivo.
Data set [21] is described as follows: Drug concentration in Sprague-Dawley rat blood at 30 umol/kg, po measured after 4 hrs by LC-MS/MS analysis. It counts as ADME, organism-based. The note with it: dose 30 µmol/kg, read-out: Drug uptake.
The nature of data set [22]: Unbound drug concentration in Sprague-Dawley rat brain at 100 umol/kg, po measured after 4 hrs by LC-MS/MS analysis. It counts as ADME, organism-based. The conditions noted are these: in vivo, dose 100 µmol/kg.
A short description of data set [23]: Drug concentration in Sprague-Dawley rat blood at 3 umol/kg, po measured after 4 hrs by LC-MS/MS analysis. It counts as ADME, organism-based. The conditions noted are these: dose 3 µmol/kg, read-out: Drug uptake.
Data set [24] in a line: Unbound drug concentration in Sprague-Dawley rat brain at 3 umol/kg, po measured after 4 hrs by LC-MS/MS analysis. It counts as ADME, organism-based. The note with it: in vivo, dose 3 µmol/kg.
Data set [25] in a line: Half life in Sprague-Dawley rat at 6 mg/kg, po. It counts as ADME, organism-based. The note with it: in vivo.
The nature of data set [26]: Drug concentration in Sprague-Dawley rat brain at 30 umol/kg, po measured after 4 hrs by LC-MS/MS analysis. Type of data set: ADME, organism-based. The conditions noted are these: dose 30 µmol/kg, read-out: Drug uptake.
The nature of data set [27]: Clearance in human liver microsomes incubated up to 80 mins by LC-MS/MS analysis. Type of data set: ADME, Microsome. The note with it: 1.333 h.
The nature of data set [28]: Thermodynamic solubility of the compound at pH 6.8. Type of data set: physicochemical. The conditions noted are these: buffer, read-out: Therm_solubility.
Data set [29] in a line: Drug concentration in Sprague-Dawley rat brain at 100 umol/kg, po measured after 4 hrs by LC-MS/MS analysis. Type of data set: ADME, organism-based. The conditions noted are these: dose 100 µmol/kg, read-out: Drug uptake.
Data set [30] is described as follows: Oral bioavailability in Sprague-Dawley rat at 6 mg/kg. The note with it: in vivo. Type of data set: ADME, organism-based.
Data set [31] can be described thus: Half life in C57BL/6 mouse at 6 mg/kg, po. Type of data set: ADME, organism-based. The conditions noted are these: in vivo.
Data set [32] can be described thus: Volume of distribution in steady state in Beagle dog at 0.3 mg/kg, po. It counts as ADME, organism-based, Canis lupus familiaris. The note with it: in vivo.
Data set [33] can be described thus: AUC (0 to infinity) in Beagle dog at 0.3 mg/kg, po. Type of data set: ADME, organism-based, Canis lupus familiaris. Also noted: time infinity, dose 0.3 mg/kg, route po. The note with it: in vivo.
Data set [34] is described as follows: Solubility of the compound at pH 6.8. It counts as physicochemical. The conditions noted are these: buffer.
Data set [35] can be described thus: Oral bioavailability in Beagle dog at 0.3 mg/kg. It counts as ADME, organism-based, Canis lupus familiaris. The note with it: in vivo.
Data set [36] can be described thus: Octanol/water partition coefficient, log P of the compound. It counts as physicochemical.
A short description of data set [37]: Unbound drug concentration in Sprague-Dawley rat brain at 10 umol/kg, po measured after 4 hrs by LC-MS/MS analysis. It counts as ADME, organism-based. The note with it: in vivo, dose 10 µmol/kg.
Data set [38] in a line: Volume of distribution in steady state in C57BL/6 mouse at 6 mg/kg, po. Type of data set: ADME, organism-based. The conditions noted are these: in vivo.

On to `COCCOc1cnc(C(=O)Nc2ccc(F)c([C@]3(C)CO[C@@](C)(C(F)(F)F)C(N)=N3)n2)c(N)n1`, for which the CLH turned out to be 866 µL/min/mg in [1] and 204 µL/min/mg in data set [2].
As for `C[C@@]1(c2nc(NC(=O)c3ncc(C(F)(F)F)cc3Cl)ccc2F)CO[C@@](C)(C(F)(F)F)C(N)=N1`, the solubility kinetic in data set [3] was 15 µg/mL (≈ 29.2 µM). Moreover, the half-life in data set [4] was 1400 min; in [25], 798 min; in [31], 570 min. In addition, the AUC is 2045 nM·h in data set [5] and 1160 nM·h in data set [20]. Further, the concentration at 4 h in data set [6] was determined as 440 nM; in [9], 3.43 µM; in data set [11], 180 nM; in [14], 850 nM; in data set [21], 1710 nM; in [23], 160 nM. Further, the concentration at 4 h in data set [26] was found to be 3.28 µM; in data set [29], 3.6 µM. Besides, the maximum concentration (Cmax) in data set [7] was determined as 146 nM; in data set [16], 82 nM; in data set [19], 257 nM. Besides, the CLH in data set [8] came to 37 mL/min/kg; in [10], 3.3 mL/min/kg; in data set [1], 32 µL/min/mg; in data set [27], 26 µL/min/mg; in [2], 37 µL/min/mg. In addition, the figures for the bioavailability in [12], in [30] and in [35] were 48%, 60% and 57%, respectively. Further, in [13], the CL/F was 2 mL/min/kg. Further, the Vdss in data set [15] was determined as 6.9 L/kg; in data set [32] it was 3.9 L/kg; in [38] it was 6.9 L/kg. Also, the “Drug uptake(free)” value was determined as 0.12 µM in data set [17], 0.03 µM in [22], 0.002 µM in data set [24] and 0.008 µM in [37]. Besides, the solubility thermodynamic is more than 1500 µg/mL in data set [18] and 23 µg/mL (≈ 44.8 µM) in [28]. This molecule had an area under the curve AUC(0-inf) in data set [33] of 7.75 µM·h. Moreover, in data set [34], the solubility was found to be 13 µg/mL (≈ 25.3 µM). This molecule displayed a log partition coefficient (logP) in data set [36] of 4.3.
The molecule `Cc1cc(C#N)cnc1C(=O)Nc1ccc(F)c([C@]2(C)CO[C@@](C)(C(F)(F)F)C(N)=N2)c1` displayed an AUC in [5] of 973 nM·h. Further, the Cmax in data set [7] is 128 nM. The molecule further gave a CLH in data set [8] of 17 mL/min/kg. In addition, in data set [15], the Vdss amounted to 9 L/kg. The same molecule gave a half-life in [25] of 294 min.

The term half-life denotes the time in which the quantity being followed falls by half. One may read the AUC as the area under the concentration-time curve, a measure of exposure. Lower therefore signals low exposure. What is called Cmax is the maximum level reached in the sampled fluid or tissue. Usually bioavailability stands for dose-corrected exposure relative to a reference, in per cent. The CL/F is clearance divided by bioavailability, as obtained after extravascular dosing. As a reminder, the AUC(0-inf) is the area under the concentration-time curve extrapolated to infinity. Read a high AUC(0-inf) as more exposure. One may read the solubility as the concentration that dissolves in the medium under given conditions. For orientation: logP means the decadic logarithm of the partition coefficient of the neutral form, usually between octanol and water. Lower therefore signals lower lipophilicity.
